Assay results: patent US10526337B2, “Heteroaryl derivative or pharmaceutically acceptable salt thereof, preparation method therefor, and pharmaceutical composition for preventing or treating diseases associated with PI3 kinases, containing same as active ingredient” (KOREA RESEARCH INSTITUTE OF CHEMICAL TECHNOLOGY, priority 2015, dated 2020)

What was measured:
[1] = target: T1, PI3 Kinase (p110δ/p85α) (h) (Homo sapiens, UniProt O00329); experiment: Inhibition of phosphatidylinositol 3-kinase delta (PI3K δ), pAkt Western blotting in IgM-stimulated Raji cells; type: cell-based; conditions: ATP=10 uM, sample concentration=100 nM
T1 construct: endogenous in cells; host or cells: Raji
Protocol: (§1) The stimulated cells were transferred in a 1.5 mL tube, followed by centrifugation at 3000 rpm for 1 minute. 100 μL of RIPA buffer (radioimmunoprecipitation assay buffer, 50 mM Tris-HCl, 5 mM EDTA, 150 mM NaCl, 1% NP-40, 1 mM PMSF, pH 8.0; ELPIS, Korea) was added thereto, which was stored in a 4° C. refrigerator for 12 hours. Centrifugation was performed at 4° C. at 14,000 rpm for 20 minutes. The supernatant was transferred into a new 1.5 mL tube. Protein was quantified by BCA (bicinchoninic acid) method and samples were prepared. The composition of the sample was as follows: sample buffer (ELPIS, EBA-1052) 5×, protein 10 μg, and 1× sample buffer to make the total volume 20 μL. The sample was heated at 100° C. for 5 minutes. The evaporated water vapor was condensed in a refrigerator. The liquid stained on the wall was fallen down by centrifugation for a few seconds. The sample proceeded to 10% SDS (Sodium Dodecyl Sulfate) acrylamide gel for separation. The separated protein was transferred onto PVDF (poly-vinyl difluoride) membrane, followed by reaction with pAkt (phospho protein kinase B) antibody (Ser473 or Thr308; Cell signaling, 9271s or 13038s) for 12 hours at 4° C. The membrane was washed with TBST (Tris-Buffered Saline with Tween 20, 10 mM Tris-HCl, pH 7.5, 150 mM NaCl, 0.1% Tween-20) three times for 5 minutes each, to which the secondary antibody (rabbit antibody, Santacruz, sc-2004) was added, followed by reaction at room temperature for 2 hours. The membrane was washed with TBST three times for 10 minutes each, to which ECL (enhanced chemiluminescence, Thermo, NCI34095KR) was sprayed. Bands were investigated by using LAS-3000.
The inhibition of phosphatidylinositol 3 kinase delta (PI3K δ) by those compounds prepared in Examples 1˜98 was investigated by the following experiment. The inhibition activity of each compound was measured in the following conditions: ATP=10 uM, and sample concentration=100 nM.
(§2) Raji cells cultured in RPMI1640 (Hyclone, SH30027.02) supplemented with 10% fetal bovine serum (Hyclon, USA) were distributed in a 12-well plate at the density of 1,000,000 cells/well. The cells were stabilized in a 37° C. CO2 for 24 hours and then treated with each compound for 1 and half hours. The cells were treated with 0.25 μg/mL of IgM (immunoglobulin M, Southern Biotech, USA) to increase the intracellular activity of PI3K delta. 30 minutes later, the medium was discarded and the cells were washed with cold PBS (phosphate buffered saline, Gibco, 14190-250). PBS was then eliminated completely by using a pipette. Western blotting was performed according to the same manner as described in step 2 of Experimental Example 1 to evaluate the intracellular PI3K delta activity.

PI3 Kinase (p120γ) (h) = target: T2, PI3 Kinase (p120γ) (h) (Homo sapiens, UniProt P48736); experiment: Inhibition of phosphatidylinositol 3-kinase gamma (PI3K γ), pAkt Western blotting in C5a-stimulated RAW264.7 macrophages; type: cell-based, mouse; conditions: ATP=10 uM, sample concentration=100 nM
T2 construct: endogenous in cells; host or cells: RAW264.7
Protocol: as §1
The inhibition of phosphatidylinositol 3 kinase gamma (PI3K γ) by those compounds prepared in Examples 1˜98 was investigated by the following experiment. The inhibition activity of each compound was measured in the following conditions: ATP=10 uM, and sample concentration=100 nM.
as §2, with “Macrophages (RAW264.7)” for “Raji cells”, “DMEM (Dulbecco's Modified Eagle Medium, Hyclon, SH30243.01)” for “RPMI1640 (Hyclone, SH30027.02)”, “10 ng/mL” for “0.25 μg/mL”, “C5a (complement component 5a, 10 μg/mL; R&D, 2150-C5)” for “IgM (immunoglobulin M, Southern Biotech, USA)”, “gamma. 5” for “delta. 30”, “gamma” for “delta”

T1 sequence (O00329 whole entry): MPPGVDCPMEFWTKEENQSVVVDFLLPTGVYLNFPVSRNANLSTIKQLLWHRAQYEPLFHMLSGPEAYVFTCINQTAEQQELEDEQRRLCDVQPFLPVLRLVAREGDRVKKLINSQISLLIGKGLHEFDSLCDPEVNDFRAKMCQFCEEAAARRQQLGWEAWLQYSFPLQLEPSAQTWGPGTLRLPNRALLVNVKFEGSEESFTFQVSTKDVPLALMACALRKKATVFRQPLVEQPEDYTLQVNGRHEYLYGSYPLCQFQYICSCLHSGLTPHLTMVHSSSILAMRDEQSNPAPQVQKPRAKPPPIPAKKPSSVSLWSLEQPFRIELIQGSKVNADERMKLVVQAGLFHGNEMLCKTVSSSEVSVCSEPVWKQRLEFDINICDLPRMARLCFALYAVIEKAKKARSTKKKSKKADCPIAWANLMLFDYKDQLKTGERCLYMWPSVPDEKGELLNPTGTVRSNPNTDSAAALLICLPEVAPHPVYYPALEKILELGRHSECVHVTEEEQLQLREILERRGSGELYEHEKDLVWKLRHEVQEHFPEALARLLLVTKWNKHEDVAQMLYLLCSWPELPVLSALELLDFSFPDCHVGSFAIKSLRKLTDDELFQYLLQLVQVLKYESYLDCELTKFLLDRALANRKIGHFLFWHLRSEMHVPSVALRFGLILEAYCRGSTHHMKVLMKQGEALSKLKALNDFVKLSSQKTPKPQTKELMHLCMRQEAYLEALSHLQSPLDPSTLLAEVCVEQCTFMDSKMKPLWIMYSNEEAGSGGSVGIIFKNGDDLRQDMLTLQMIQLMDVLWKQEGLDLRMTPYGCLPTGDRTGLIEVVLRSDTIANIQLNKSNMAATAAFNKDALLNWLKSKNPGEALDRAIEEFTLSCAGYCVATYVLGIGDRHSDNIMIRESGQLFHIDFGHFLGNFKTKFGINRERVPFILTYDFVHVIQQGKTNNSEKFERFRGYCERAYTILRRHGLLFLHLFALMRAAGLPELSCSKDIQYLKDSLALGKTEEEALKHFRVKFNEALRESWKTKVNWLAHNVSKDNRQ
T1 sequence (P27986 whole entry partner): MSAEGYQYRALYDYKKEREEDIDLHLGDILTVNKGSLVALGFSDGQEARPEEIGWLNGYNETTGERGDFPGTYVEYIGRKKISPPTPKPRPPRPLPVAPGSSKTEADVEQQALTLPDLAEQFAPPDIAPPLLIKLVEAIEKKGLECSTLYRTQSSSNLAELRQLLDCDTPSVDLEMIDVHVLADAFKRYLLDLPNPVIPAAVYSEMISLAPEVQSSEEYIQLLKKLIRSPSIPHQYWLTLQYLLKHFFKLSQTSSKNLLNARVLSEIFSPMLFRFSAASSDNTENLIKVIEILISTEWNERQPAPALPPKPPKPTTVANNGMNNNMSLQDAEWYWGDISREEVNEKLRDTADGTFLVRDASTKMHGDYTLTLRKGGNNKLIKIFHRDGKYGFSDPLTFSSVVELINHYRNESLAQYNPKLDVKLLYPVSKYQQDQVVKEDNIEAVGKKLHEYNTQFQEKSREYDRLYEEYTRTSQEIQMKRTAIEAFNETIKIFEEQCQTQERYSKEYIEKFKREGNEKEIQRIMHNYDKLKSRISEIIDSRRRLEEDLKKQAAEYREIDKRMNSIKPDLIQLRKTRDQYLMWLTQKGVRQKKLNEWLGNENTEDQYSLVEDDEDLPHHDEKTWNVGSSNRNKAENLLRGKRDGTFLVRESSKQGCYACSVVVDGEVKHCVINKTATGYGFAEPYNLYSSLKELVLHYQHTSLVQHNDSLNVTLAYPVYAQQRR
T2 sequence (P48736 whole entry): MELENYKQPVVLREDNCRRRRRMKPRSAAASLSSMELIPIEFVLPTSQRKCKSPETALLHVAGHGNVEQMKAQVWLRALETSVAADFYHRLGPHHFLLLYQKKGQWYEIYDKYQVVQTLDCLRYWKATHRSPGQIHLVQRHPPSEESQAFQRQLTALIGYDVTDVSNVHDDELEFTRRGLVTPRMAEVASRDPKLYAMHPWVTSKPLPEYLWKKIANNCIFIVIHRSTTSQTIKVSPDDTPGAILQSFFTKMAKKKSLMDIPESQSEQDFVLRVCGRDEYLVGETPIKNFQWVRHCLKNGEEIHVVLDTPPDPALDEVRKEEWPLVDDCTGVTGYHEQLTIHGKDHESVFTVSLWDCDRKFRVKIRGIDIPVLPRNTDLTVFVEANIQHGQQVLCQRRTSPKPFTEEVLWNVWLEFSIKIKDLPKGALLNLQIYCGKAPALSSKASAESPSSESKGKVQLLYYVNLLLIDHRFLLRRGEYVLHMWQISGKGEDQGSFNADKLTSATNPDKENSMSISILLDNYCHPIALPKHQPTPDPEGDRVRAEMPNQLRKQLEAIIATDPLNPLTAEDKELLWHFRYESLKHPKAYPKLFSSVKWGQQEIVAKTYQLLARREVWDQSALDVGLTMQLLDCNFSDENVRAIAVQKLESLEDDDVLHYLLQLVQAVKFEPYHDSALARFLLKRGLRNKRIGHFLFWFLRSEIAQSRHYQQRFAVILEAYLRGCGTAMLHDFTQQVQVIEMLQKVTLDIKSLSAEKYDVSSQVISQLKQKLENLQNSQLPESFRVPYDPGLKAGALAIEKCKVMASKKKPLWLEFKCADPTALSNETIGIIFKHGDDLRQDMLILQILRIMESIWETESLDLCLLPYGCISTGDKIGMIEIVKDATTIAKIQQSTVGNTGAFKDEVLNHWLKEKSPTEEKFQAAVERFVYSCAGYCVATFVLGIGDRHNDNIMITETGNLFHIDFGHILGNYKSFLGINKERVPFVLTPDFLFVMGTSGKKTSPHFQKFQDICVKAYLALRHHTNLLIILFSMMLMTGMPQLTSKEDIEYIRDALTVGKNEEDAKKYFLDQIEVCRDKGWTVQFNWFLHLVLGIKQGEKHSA

Row | IC50 [1] [µM] | IC50 (PI3 Kinase (p120γ) (h)) [µM] | Compound
1 | 0.01 to 0.5 | 0.01 to 0.5 | C[C@H](Nc1ncnc2[nH]cnc(=O)c12)c1cc2cccc(Cl)c2c(=O)n1-c1ccccc1 [Example 70, (S)-5-((1-(8-chloro-1-oxo-2-phenyl-1,2-dihydroisoquinoline-3-yl)ethyl)amino)pyrimido[4,5-d]pyrimidine-4(1H)-one]
2 | > 0.5 | > 0.5 | O=c1nc[nH]c2ncnc(N3CCC[C@H]3c3nc4cccc(Cl)c4c(=O)n3-c3cccnc3)c12 [Example 76, (S)-5-(2-(5-chloro-4-oxo-3-(pyridine-3-yl)-3,4-dihydroquinazoline-2-yl)pyrrolidine-1-yl)pyrimido[4,5-d]pyrimidine-4(1H)-one]
3 | 0.01 to 0.5 | 0.01 to 0.5 | CC[C@H](Nc1nc(N)nc2[nH]cnc(=O)c12)c1nc2cccc(F)c2c(=O)n1-c1ccccc1 [Example 89, (S)-7-amino-5-((1-(5-fluoro-4-oxo-3-phenyl-3,4-dihydroquinazoline-2-yl)propyl)amino)pyrimido[4,5-d]pyrimidine-4(1H)-one]
4 | < 0.01 | 0.01 to 0.5 | C[C@H](Nc1nc(N)nc2[nH]cnc(=O)c12)c1nn2ccc(Cl)c2c(=O)n1-c1cccc(F)c1 [Example 87, (S)-7-amino-5-((1-(5-chloro-3-(3-fluorophenyl)-4-oxo-3,4-dihydropyrrolo[2,1-f][1,2,4]triazine-2-yl)ethyl)amino)pyrimido[4,5-d]pyrimidine-4(1H)-one]
5 | > 0.5 | > 0.5 | O=c1nc[nH]c2ncnc(N3CCC[C@H]3c3nn4ccc(Cl)c4c(=O)n3-c3cccc(F)c3)c12 [Example 80, (S)-5-(2-(5-chloro-3-(3-fluorophenyl)-4-oxo-3,4-dihydropyrrolo[2,1-f][1,2,4]triazine-2-yl)pyrrolidine-1-yl)pyrimido[4,5-d]pyrimidine-4(1H)-one]
6 | < 0.01 | 0.01 to 0.5 | CN1CNc2ncnc(N3CCC[C@H]3c3nc4cccc(Cl)c4c(=O)n3-c3cccc(F)c3)c2C1=O [Example 44, (S)-5-(2-(5-chloro-3-(3-fluorophenyl)-4-oxo-3,4-dihydroquinazoline-2-yl)pyrrolidine-1-yl)-3-methyl-2,3-dihydropyrimido[4,5-d]pyrimidine-4(1H)-one]
7 | > 0.5 | > 0.5 | Cc1cccc(-n2c([C@@H]3CCCN3c3nc(N)nc4[nH]cnc(=O)c34)nc3cccc(Cl)c3c2=O)c1 [Example 93, (S)-7-amino-5-(2-(5-chloro-4-oxo-3-(m-tolyl)-3,4-dihydroquinazoline-2-yl)pyrrolidine-1-yl)pyrimido[4,5-d]pyrimidine-4(1H)-one]
8 | 0.01 to 0.5 | > 0.5 | C[C@H](Nc1ncnc2[nH]cnc(=O)c12)c1nc2cccc(Cl)c2c(=O)n1-c1ccccc1 [Example 66, (S)-5-((1-(5-chloro-4-oxo-3-phenyl-3,4-dihydroquinazoline-2-yl)ethyl)amino)pyrimido[4,5-d]pyrimidine-4(1H)-one]
9 | > 0.5 | > 0.5 | C[C@H](Nc1ncnc2[nH]cnc(=O)c12)c1nc2cccc(Cl)c2c(=O)n1-c1cccc(F)c1 [Example 68, (S)-5-((1-(5-chloro-3-(3-fluorophenyl)-4-oxo-3,4-dihydroquinazoline-2-yl)ethyl)amino)pyrimido[4,5-d]pyrimidine-4(1H)-one]
10 | < 0.01 | 0.01 to 0.5 | C[C@H](Nc1ncnc2c1C(=O)N(C)CN2)c1nc2cccc(Cl)c2c(=O)n1-c1cccc(F)c1 [Example 36, (S)-5-((1-(5-chloro-3-(3-fluorophenyl)-4-oxo-3,4-dihydroquinazoline-2-yl)ethyl)amino)-3-methyl-2,3-dihydropyrimido[4,5-d]pyrimidine-4(1H)-one]
11 | 0.01 to 0.5 | > 0.5 | O=c1nc[nH]c2ncnc(N3CCC[C@H]3c3cc4cccc(Cl)c4c(=O)n3-c3cccnc3)c12 [Example 75, (S)-5-(2-(8-chloro-1-oxo-2-(pyridine-3-yl)-1,2-dihydroisoquinoline-3-yl)pyrrolidine-1-yl)pyrimido[4,5-d]pyrimidine-4(1H)-one]
12 | 0.01 to 0.5 | 0.01 to 0.5 | C[C@H](Nc1nc(N)nc2[nH]cnc(=O)c12)c1nn2ccc(Cl)c2c(=O)n1-c1ccccc1 [Example 86, (S)-7-amino-5-((1-(5-chloro-4-oxo-3-phenyl-3,4-dihydropyrrolo[2,1-f][1,2,4]triazine-2-yl)ethyl)amino)pyrimido[4,5-d]pyrimidine-4(1H)-one]
13 | 0.01 to 0.5 | 0.01 to 0.5 | Nc1nc(N2CCC[C@H]2c2cc3cccc(Cl)c3c(=O)n2-c2ccccc2)c2c(=O)nc[nH]c2n1 [Example 94, (S)-7-amino-5-(2-(8-chloro-1-oxo-2-phenyl-1,2-dihydroisoquinoline-3-yl)pyrrolidine-1-yl)pyrimido[4,5-d]pyrimidine-4(1H)-one]
14 | 0.01 to 0.5 | < 0.01 | C[C@H](Nc1ncnc2c1C(=O)N(C)CN2)c1cc2ccccc2nc1-c1ccccc1 [Example 39-1, (S)-3-methyl-5-((1-(2-phenylquinoline-3-yl)ethyl)amino)-2,3-dihydropyrimido[4,5-d]pyrimidine-4(1H)-one]
15 | 0.01 to 0.5 | 0.01 to 0.5 | C[C@H](Nc1ncnc2c1C(=O)N(C)CN2)c1nc2cccc(Cl)c2c(=O)n1-c1cccnc1 [Example 35, (S)-5-((1-(5-chloro-4-oxo-3-(pyridine-3-yl)-3,4-dihydroquinazoline-2-yl)ethyl)amino)-3-methyl-2,3-dihydropyrimido[4,5-d]pyrimidine-4(1H)-one]
16 | > 0.5 | > 0.5 | CN1CNc2ncnc(N3CCC[C@H]3c3nc4cccc(Cl)c4c(=O)n3-c3cccnc3)c2C1=O [Example 43, (S)-5-(2-(5-chloro-4-oxo-3-(pyridine-3-yl)-3,4-dihydroquinazoline-2-yl)pyrrolidine-1-yl)-3-methyl-2,3-dihydropyrimido[4,5-d]pyrimidine-4(1H)-one]
